Assay results taken from patent US7071180B2, “Certain arylaliphatic and heteroaryl-aliphatic piperazinyl pyrazines and their use in the treatment of serotonin-related diseases” (Biovitrum AB, priority 1999, dated 2006).
Like-named read-outs stand apart in the source and are kept apart here.

Key:
[1] = molecular target: T1, human 5-HT2c receptor (Homo sapiens, UniProt P28335); assay: 5-HT2c receptor affinity assay (displacement of 3H-labelled 5-HT, Scintillation Proximity Assay); conditions: displacement of 3H-5-HT from membranes of transfected HEK293 cells expressing human 5-HT2c receptor; non-specific binding 5 μM mianserin
T1 construct: expressed in transfected cells
T1 sequence (P28335 33-458): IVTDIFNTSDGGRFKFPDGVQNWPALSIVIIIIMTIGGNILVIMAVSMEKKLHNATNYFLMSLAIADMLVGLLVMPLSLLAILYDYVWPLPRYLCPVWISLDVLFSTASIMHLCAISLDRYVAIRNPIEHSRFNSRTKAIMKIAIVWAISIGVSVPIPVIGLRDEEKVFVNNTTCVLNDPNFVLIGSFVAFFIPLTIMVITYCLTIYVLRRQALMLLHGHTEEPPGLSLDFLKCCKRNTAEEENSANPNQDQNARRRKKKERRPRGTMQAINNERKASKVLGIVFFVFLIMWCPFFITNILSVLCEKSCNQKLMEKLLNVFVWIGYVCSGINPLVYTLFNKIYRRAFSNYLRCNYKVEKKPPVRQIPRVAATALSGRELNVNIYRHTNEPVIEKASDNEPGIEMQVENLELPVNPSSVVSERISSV
Protocol: The 5-HT2c receptor affinity of compounds in the Examples was determined in competition experiments, where the ability of each compound in serial dilution to displace ^3H-labelled 5-HT, bound to membranes prepared from a transfected HEK293 cell line stably expressing the human 5-HT2c receptor protein was monitored by Scintillation Proximity Assay technology. Non-specific binding was defined using 5 μM mianserin. Typically, the 5HT2c receptor affinity values (Ki, nM) were in the range of 1 nM to 1500 nM.

[2] = cited from earlier work
[3] = test system: 5-HT2c receptor; conditions: mice expressing the mutated inactive form of the 5-HT2c receptor; cited from earlier work
[4] = molecular target: T2, 5-HT2c receptor (Mus musculus, UniProt P34968); conditions: mice that express the normal 5-HT2c receptor; cited from earlier work
T2 construct: mice that express the normal 5-HT2c receptor; host or cells: mice (in vivo)
T2 sequence (P34968 33-459): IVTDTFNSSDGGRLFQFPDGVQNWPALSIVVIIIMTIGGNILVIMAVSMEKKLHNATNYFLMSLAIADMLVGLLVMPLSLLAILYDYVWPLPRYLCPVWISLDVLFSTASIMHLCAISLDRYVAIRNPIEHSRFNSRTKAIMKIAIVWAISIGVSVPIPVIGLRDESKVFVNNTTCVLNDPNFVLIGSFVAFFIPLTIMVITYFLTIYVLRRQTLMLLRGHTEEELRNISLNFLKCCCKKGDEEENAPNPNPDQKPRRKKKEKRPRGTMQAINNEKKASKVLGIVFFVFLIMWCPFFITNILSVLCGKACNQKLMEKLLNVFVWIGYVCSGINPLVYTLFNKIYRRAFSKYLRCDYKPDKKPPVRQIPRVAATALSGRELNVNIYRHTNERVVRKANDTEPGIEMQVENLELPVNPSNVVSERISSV

SMILES | Ki [1] [nM] | also measured
NC1CCN(c2nccnc2OCCOc2ccccc2Cl)C1 (centres unmarked) [Example 23, 2-(2-Chlorophenoxy)ethyl 3-(3-amino-1-pyrrolidinyl)-2-pyrazinyl ether] | 377 | 
COc1cc(OC)cc(OCCOc2nccnc2N2CCNCC2)c1 [Example 57, 2-(3,5-Dimethoxyphenoxy)ethyl 3-(1-piperazinyl)-2-pyrazinyl ether] | 24 | 
O=C1CCc2c(OCCOc3nccnc3N3CCNCC3)cccc21 [Example 82, 2-(1-Oxoindanyl-4-yloxy)ethyl 3-(1-piperazinyl)-2-pyrazinyl ether] | 116 | 
c1ccc2oc(COc3nccnc3N3CCNCC3)cc2c1 [Example 122, 2-(Benzofuran-2-ylmethoxy)-3-(1-piperazinyl)pyrazine] | 45 | 
c1ccc(CCCOc2nccnc2N2CCNCC2)nc1 [Example 125, 2-(1-piperazinyl)-3-[3-(2-pyridinyl)propoxy]pyrazine] | 171 | 
c1cncc(OCCOc2nccnc2N2CCNCC2)c1 [Example 150, 2-(3-Pyridyloxy)ethyl 3-(1-piperazinyl)-2-pyrazinyl ether] | 50 | 
c1cc(OCCOc2nccnc2N2CCNCC2)ccn1 [Example 151, 2-(4-Pyridyloxy)ethyl 3-(1-piperazinyl)-2-pyrazinyl ether] | 185 | 
c1ccc2c(c1)NCC(COc1nc3ccccc3nc1N1CCNCC1)O2 (centres unmarked) [Example 167, 2-(3,4-Dihydro-2H-1,4-benzoxazin-2-ylmethoxy)-3-(1-piperazinyl)quinoxaline] | 34 | 
C[C@@H]1CNCCN1c1nccnc1OCCOc1cccnc1 [Example 173, (2R)-Methyl-1-{3-[2-(3-pyridinyloxy)ethoxy]-2-pyrazinyl}piperazine] | 16 | 
Cc1nc(OCCOc2ccccc2)c(N2CCNCC2)nc1C [Example 183, 5,6-Dimethyl-2-(2-phenoxyethoxy)-3-(1-piperazinyl)pyrazine] | 10 | 
C[C@@H]1CNCCN1c1nccnc1OCCOc1cccnc1Cl [Example 194, (2R)-1-(3-{2-[(2-Chloro-3-pyridinyl)oxy]ethoxy}-2-pyrazinyl)-2-methylpiperazine] | 5 | 
c1ccc(COc2cccc(OCCOc3nccnc3N3CCNCC3)c2)cc1 [Example 231, 2-{2-[3-(Benzyloxy)phenoxy]ethoxy}-3-(1-piperazinyl)pyrazine] | 12 | 
CCN[C@@H](C)Cc1cccc(C(F)(F)F)c1 [dexfenfluramine] |  | body weight effect ([2]; controlled studies): weight reduction
CNCCC(Oc1ccc(C(F)(F)F)cc1)c1ccccc1 (centres unmarked) [fluoxetine] |  | body weight effect ([2]; controlled studies): weight reduction
Clc1cccc(N2CCNCC2)c1 [mCPP, m-chlorophenylpiperazine] |  | body weight effect [3]: lacks activity; body weight effect [4]: causes weight loss; body weight effect ([2]; obese subjects, after 2 weeks of treatment): slight but sustained reduction in body weight
